ChEMBL document CHEMBL1155520, “Novel 8a-aza-8a-homoerythromycin--4''-(3-substituted-amino)propionates with broad spectrum antibacterial activity” (2010)
In brackets after ≈: the same amount, converted by molar mass.

Key:
Format in all cases: functional
[1] = system: Streptococcus pneumoniae; assay: Antimicrobial activity against inducible macrolide and constitutive lincosamide, streptogramin-resistant Streptococcus pneumoniae 58 Spain
[2] = system: Streptococcus pyogenes; assay: Antimicrobial activity against inducible macrolide and constitutive lincosamide, streptogramin-resistant Streptococcus pyogenes 166 GR-micro
[3] = system: Streptococcus pyogenes; assay: Antimicrobial activity against inducible macrolide, lincosamide, streptogramin-resistant Streptococcus pyogenes Finland 11
[4] = system: Haemophilus influenzae; assay: Antimicrobial activity against Haemophilus influenzae ATCC 49247
[5] = system: Staphylococcus aureus; assay: Antimicrobial activity against macrolide-sensitive Staphylococcus aureus ATCC 13709
[6] = system: Streptococcus pneumoniae; assay: Antimicrobial activity against inducible macrolide, lincosamide, streptogramin-resistant Streptococcus pneumoniae 134 GRM
[7] = system: Staphylococcus aureus; assay: Antimicrobial activity against macrolide-sensitive Staphylococcus aureus PK1
[8] = system: Streptococcus pyogenes; assay: Antimicrobial activity against inducible macrolide-resistant Streptococcus pyogenes Finland 3
[9] = system: Streptococcus pneumoniae; assay: Antimicrobial activity against macrolide-resistant Streptococcus pneumoniae Ci137
[10] = system: Streptococcus pneumoniae; assay: Antimicrobial activity against inducible macrolide and constitutive lincosamide, streptogramin-resistant Streptococcus pneumoniae 4636
[11] = system: Streptococcus pyogenes; assay: Antimicrobial activity against macrolide-sensitive Streptococcus pyogenes 3665
[12] = system: Streptococcus pneumoniae; assay: Antimicrobial activity against macrolide-sensitive Streptococcus pneumoniae SPO 30

Row | SMILES | MIC [1] [µg/mL] | MIC [2] [µg/mL] | MIC [3] [µg/mL] | MIC [4] [µg/mL] | MIC [5] [µg/mL] | MIC [6] [µg/mL] | MIC [7] [µg/mL] | MIC [8] [µg/mL] | MIC [9] [µg/mL] | MIC [10] [µg/mL] | MIC [11] [µg/mL] | MIC [12] [µg/mL]
1 | CC[C@H]1OC(=O)[C@H](C)[C@@H](O[C@H]2C[C@@](C)(OC)[C@@H](OC(=O)CCN3CCN(c4cc5c(cc4F)c(=O)c(C(=O)O)cn5C4CC4)CC3)[C@H](C)O2)[C@H](C)[C@@H](O[C@@H]2O[C@H](C)C[C@H](N(C)C)[C@H]2O)[C@](C)(OC)C[C@@H](C)NC(=O)[C@H](C)[C@@H](O)[C@]1(C)O | 16 (≈ 13.9 µM) | 8 (≈ 6.97 µM) | 0.5 (≈ 0.435 µM) | 1 (≈ 0.871 µM) | 1 (≈ 0.871 µM) | 8 (≈ 6.97 µM) | 2 (≈ 1.74 µM) | 0.5 (≈ 0.435 µM) | < 0.13 |  |  | 
2 | CC[C@H]1OC(=O)[C@H](C)[C@@H](O[C@H]2C[C@@](C)(OC)[C@@H](OC(=O)CCNCCNc3cc4c(cc3F)c(=O)c(C(=O)O)cn4C3CC3)[C@H](C)O2)[C@H](C)[C@@H](O[C@@H]2O[C@H](C)C[C@H](N(C)C)[C@H]2O)[C@](C)(O)C[C@@H](C)NC(=O)[C@H](C)[C@@H](O)[C@]1(C)O | < 0.13 | 0.25 (≈ 0.226 µM) | < 0.13 |  | 0.25 (≈ 0.226 µM) | < 0.13 | 0.5 (≈ 0.451 µM) | 0.25 (≈ 0.226 µM) | < 0.13 |  |  | 
3 | CC[C@H]1OC(=O)[C@H](C)[C@@H](O[C@H]2C[C@@](C)(OC)[C@@H](OC(=O)CCNCCNc3cc4c(cc3F)c(=O)c(C(=O)O)cn4C3CC3)[C@H](C)O2)[C@H](C)[C@@H](O[C@@H]2O[C@H](C)C[C@H](N(C)C)[C@H]2O)[C@](C)(OC)C[C@@H](C)NC(=O)[C@H](C)[C@@H](O)[C@]1(C)O | < 0.13 | 0.25 (≈ 0.223 µM) | < 0.13 | 4 (≈ 3.56 µM) | < 0.13 | < 0.13 | < 0.13 | 0.5 (≈ 0.445 µM) | < 0.13 |  |  | 
4 | NCCNc1cc2c(cc1F)c(=O)c(C(=O)O)cn2C1CC1 | > 64 | > 64 | > 64 | > 64 | > 64 | > 64 | > 64 | > 64 | > 64 |  |  | 
5 | CC[C@H]1OC(=O)[C@H](C)[C@@H](O[C@H]2C[C@@](C)(OC)[C@@H](O)[C@H](C)O2)[C@H](C)[C@@H](O[C@@H]2O[C@H](C)C[C@H](N(C)C)[C@H]2O)[C@](C)(O)C[C@@H](C)NC(=O)[C@H](C)[C@@H](O)[C@]1(C)O | > 64 | > 64 | 16 (≈ 21.4 µM) | 2 (≈ 2.67 µM) | 1 (≈ 1.34 µM) | > 64 | > 64 | 32 (≈ 42.7 µM) | 32 (≈ 42.7 µM) | > 64 | < 0.13 | < 0.13
6 | CC[C@H]1OC(=O)[C@H](C)[C@@H](O[C@H]2C[C@@](C)(OC)[C@@H](O)[C@H](C)O2)[C@H](C)[C@@H](O[C@@H]2O[C@H](C)C[C@H](N(C)C)[C@H]2O)[C@](C)(OC)C[C@@H](C)NC(=O)[C@H](C)[C@@H](O)[C@]1(C)O | > 64 | > 64 | 8 (≈ 10.5 µM) | 4 (≈ 5.24 µM) | 0.5 (≈ 0.655 µM) | > 64 | > 64 | 32 (≈ 41.9 µM) | 16 (≈ 21 µM) | > 64 | < 0.13 | < 0.13
7 | CC[C@H]1OC(=O)[C@H](C)[C@@H](O[C@H]2C[C@@](C)(OC)[C@@H](O)[C@H](C)O2)[C@H](C)[C@@H](O[C@@H]2O[C@H](C)C[C@H](N(C)C)[C@H]2O)[C@](C)(O)C[C@@H](C)CN(C)[C@H](C)[C@@H](O)[C@]1(C)O [AZITHROMYCIN] | > 64 | > 64 | 16 (≈ 21.4 µM) | 1 (≈ 1.34 µM) | 0.5 (≈ 0.668 µM) | > 64 | > 64 | 8 (≈ 10.7 µM) | 8 (≈ 10.7 µM) | > 64 | < 0.13 | < 0.13
8 | CC[C@H]1OC(=O)[C@H](C)C(=O)[C@H](C)[C@@H](O[C@@H]2O[C@H](C)C[C@H](N(C)C)[C@H]2O)[C@](C)(OC)C[C@@H](C)C(=O)[C@H](C)[C@H]2N(CCCCn3cnc(-c4cccnc4)c3)C(=O)O[C@]12C [TELITHROMYCIN] | 0.25 (≈ 0.308 µM) | 16 (≈ 19.7 µM) | 0.06 (≈ 0.0739 µM) | 2 (≈ 2.46 µM) | < 0.06 | 0.25 (≈ 0.308 µM) | 0.125 (≈ 0.154 µM) | 0.5 (≈ 0.616 µM) | 0.25 (≈ 0.308 µM) |  |  | 
